Literature values, collected in US20260273108A1, “USE OF ACRYLIC ACID-CONTAINING POLYMERS FOR MOLECULAR IMAGING OF TARGET PROTEINS” (The Johns Hopkins University, priority 2023, published 2026).
Like-named read-outs stand apart in the source and are kept apart here. Marks after values point to notes of the source that are not given here.

Assays:
[1] = for Radio frequency: radiofrequency for saturation (CEST)
[2] = IV dose for rodents
[3] = bolus intravenous injection in humans
[4] = water-exchanging protons at a pH of 7-7.4 and temperature of 36-67° C.

Compound | Radio frequency [1] | IV Dose [3] [mmol/kg] | Exchange rate kex ([1]; exchange rates for glucose, pH of 7-7.4 and temperature of 36-67° C.) | Exchange rate kex [1, 4] | IV Dose [2]
N=C(N)NCCC[C@H](N)C(=O)O [Arginine] | 1.8-2.0 ppm | – | – | 1,200 s^−1 | –
O=C1CC(=O)NC(=O)N1 [Barbituric acid] | 5.0 ppm | – | – | – | 1.56* mmole/kg
Nc1ccc(C(=O)O)c(O)c1 [4-Aminosalicylate] | – | 2.33 | – | N/A, 1,200 s^−1 | –

More lines, main results first:

Radio frequency [1] | IV Dose [3] [mmol/kg] | Exchange rate kex ([1]; exchange rates for glucose, pH of 7-7.4 and temperature of 36-67° C.) | Compound | Exchange rate kex [1, 4] | IV Dose [2]
3.0 ppm | 5.61 | – | C[C@H](N)C(=O)O [Alanine] | 7,670 s^−1 | –
6.3-6.4 ppm | 1.43 | – | O=c1ccn([C@@H]2O[C@H](CO)[C@@H](O)[C@H]2O)c(=O)[nH]1 [Uridine] | 3080 s⁻¹ | –
1.2 ppm | 1.86 | 2,900-14,000^# s^−1 | N[C@H]1C(O)O[C@H](CO)[C@@H](O)[C@@H]1O (stereo partly drawn) [Glucosamine] | – | –
